The target in this test is uPAR H47C-N259C. The experiment in a line: SPR inhibition of uPAR binding to immobilized uPA (uPAR H47C-N259C). More on the design: species or system human. Particulars: inhibition of uPAR binding to immobilized prouPA S356A. The method, then:
Covalent immobilization of purified human prouPA^S356A was accomplished by injecting 12.5 μg/ml protein dissolved in 10 mM sodium acetate (pH 5.0) over a CM5 chip that had been pre-activated with NHS/EDC (N-ethyl-N′[3-[…])propyl]-carbodiimide), aiming at a surface density of >5000 resonance units (RU) corresponding to 100 fmols/mm^2. After coupling the sensor-chip was deactivated with 1 M ethanolamine. Binding of purified human uPAR as analyte was measured from 4 nM to 0.25 nM at using 10 mM HEPES, 150 mM NaCl, 3 mM EDTA (pH 7.4) containing (v/v) surfactant P20 as running buffer at a flow rate of […]. In between cycles the sensor-chip was regenerated by two consecutive 10-μl injections of 0.1 M acetic acid/HCI (pH 2.5) in 0.5 M NaCl. The inhibition of 3-fold dilutions of the compounds in question was measured for 4 nM uPAR with identical running conditions. All experiments were performed on a BiacoreT200 instrument.
For each inhibition peptide inhibition profile of uPAR binding to immobilized uPA there has been run a preceding standard curve and all calculations are based on the that standard curve.

In turn, `CC(C)C[C@H](NC(=O)[C@H](Cc1ccc(O)cc1)NC(=O)[C@@H](CCCNC(=N)N)NC(=O)[C@@H](CO)NC(=O)[C@H](Cc1ccccc1)NC(=O)[C@H](CC1CCCCC1)NC(=O)[C@@H](N)CC(=O)O)C(=O)N[C@@H](Cc1c[nH]c2ccccc12)C(=O)N[C@@H](CO)C(=O)O` [AE105, DChaFsrYLWS-OH] registered an IC50 of 4.5 ± 1.5 µM.

By IC50 is commonly meant the concentration at which inhibition is half-maximal.

For the origin of these results see US20240009331A1, “UROKINASE PLASMINOGEN ACTIVATOR RECEPTOR TARGETED RADIOLABELED PEPTIDE CONJUGATES” (CURASIGHT A/S, priority 2020, published 2024).
